Key:
Assay in all cases: Proqinase Kinase profiling
Type in all cases: biochemical
Details in all cases: read-out: % inhibition at 100nM
ABL1_E255K = molecular target: T1, ABL1_E255K (Homo sapiens, UniProt P00519, E255K)
T1 construct: purchased DiscoverX

JAK3 = molecular target: T2, JAK3 (Homo sapiens, UniProt P52333)
T2 construct: purchased DiscoverX

MATK = molecular target: T3, MATK (Homo sapiens, UniProt P42679)
T3 construct: purchased DiscoverX

MAPK11 = molecular target: T4, MAPK11 (Homo sapiens, UniProt Q15759)
T4 construct: purchased DiscoverX

BRAF = molecular target: T5, BRAF (Homo sapiens, UniProt P15056)
T5 construct: purchased DiscoverX

SIK2 = molecular target: T6, SIK2 (Homo sapiens, UniProt Q9H0K1)
T6 construct: purchased DiscoverX

ACVR1 = molecular target: T7, ACVR1 (Homo sapiens, UniProt Q04771)
T7 construct: purchased DiscoverX

PLK2 = molecular target: T8, PLK2 (Homo sapiens, UniProt Q9NYY3)
T8 construct: purchased DiscoverX

MAP2K6 = molecular target: T9, MAP2K6 (Homo sapiens, UniProt P52564)
T9 construct: purchased DiscoverX

MYLK2 = molecular target: T10, MYLK2 (Homo sapiens, UniProt Q9H1R3)
T10 construct: purchased DiscoverX

WEE1 = molecular target: T11, WEE1 (Homo sapiens, UniProt P30291)
T11 construct: purchased DiscoverX

EGFR_L747-S752del_P753S = molecular target: T12, EGFR_L747-S752del_P753S (Homo sapiens, UniProt P00533, DEL747-752/P753S)
T12 construct: purchased DiscoverX

PRKD1 = molecular target: T13, PRKD1 (Homo sapiens, UniProt Q15139)
T13 construct: purchased DiscoverX

EPHA8 = molecular target: T14, EPHA8 (Homo sapiens, UniProt P29322)
T14 construct: purchased DiscoverX

RET_S891A = molecular target: T15, RET_S891A (Homo sapiens, UniProt P07949, S891A)
T15 construct: purchased DiscoverX

TEC = molecular target: T16, TEC (Homo sapiens, UniProt P42680)
T16 construct: purchased DiscoverX

MAPK8 = molecular target: T17, MAPK8 (Homo sapiens, UniProt P45983)
T17 construct: purchased DiscoverX

KIT_V559D_V654A = molecular target: T18, KIT_V559D_V654A (Homo sapiens, UniProt P10721, V559D/V654A)
T18 construct: purchased DiscoverX

NEK4 = molecular target: T19, NEK4 (Homo sapiens, UniProt P51957)
T19 construct: purchased DiscoverX

TXK = molecular target: T20, TXK (Homo sapiens, UniProt P42681)
T20 construct: purchased DiscoverX

GRK6 = molecular target: T21, GRK6 (Homo sapiens, UniProt P43250)
T21 construct: purchased DiscoverX

EGFR_T790M = molecular target: T22, EGFR_T790M (Homo sapiens, UniProt P00533, T790M)
T22 construct: purchased DiscoverX

CHEK2 = molecular target: T23, CHEK2 (Homo sapiens, UniProt O96017)
T23 construct: purchased DiscoverX

MAPK1 = molecular target: T24, MAPK1 (Homo sapiens, UniProt P28482)
T24 construct: purchased DiscoverX

BMPR1A = molecular target: T25, BMPR1A (Homo sapiens, UniProt P36894)
T25 construct: purchased DiscoverX

RET_Y791F = molecular target: T26, RET_Y791F (Homo sapiens, UniProt P07949, Y791F)
T26 construct: purchased DiscoverX

RET_R813Q = molecular target: T27, RET_R813Q (Homo sapiens, UniProt P07949, R813Q)
T27 construct: purchased DiscoverX

GSG2 = molecular target: T28, GSG2 (Homo sapiens, UniProt Q8TF76)
T28 construct: purchased DiscoverX

PAK7 = molecular target: T29, PAK7 (Homo sapiens, UniProt Q9P286)
T29 construct: purchased DiscoverX

CDK4_cyclinD1 = molecular target: T30, CDK4_cyclinD1 (Homo sapiens, UniProt P11802)
T30 construct: purchased DiscoverX

FGFR3_K650E = molecular target: T31, FGFR3_K650E (Homo sapiens, UniProt P22607, K650E)
T31 construct: purchased DiscoverX

CDK9_cyclinT1 = molecular target: T32, CDK9_cyclinT1 (Homo sapiens, UniProt P50750)
T32 construct: purchased DiscoverX

TNK2 = molecular target: T33, TNK2 (Homo sapiens, UniProt Q07912)
T33 construct: purchased DiscoverX

TLK1 = molecular target: T34, TLK1 (Homo sapiens, UniProt Q9UKI8)
T34 construct: purchased DiscoverX

STK33 = molecular target: T35, STK33 (Homo sapiens, UniProt Q9BYT3)
T35 construct: purchased DiscoverX

DAPK1 = molecular target: T36, DAPK1 (Homo sapiens, UniProt P53355)
T36 construct: purchased DiscoverX

SYK = molecular target: T37, SYK (Homo sapiens, UniProt P43405)
T37 construct: purchased DiscoverX

MARK3 = molecular target: T38, MARK3 (Homo sapiens, UniProt P27448)
T38 construct: purchased DiscoverX

PAK6 = molecular target: T39, PAK6 (Homo sapiens, UniProt Q9NQU5)
T39 construct: purchased DiscoverX

PRKCI = molecular target: T40, PRKCI (Homo sapiens, UniProt P41743)
T40 construct: purchased DiscoverX

MAPKAPK2 = molecular target: T41, MAPKAPK2 (Homo sapiens, UniProt P49137)
T41 construct: purchased DiscoverX

ADRBK2 = molecular target: T42, ADRBK2 (Homo sapiens, UniProt P35626)
T42 construct: purchased DiscoverX

CAMK2B = molecular target: T43, CAMK2B (Homo sapiens, UniProt Q13554)
T43 construct: purchased DiscoverX

T39 sequence (Q9NQU5 whole entry): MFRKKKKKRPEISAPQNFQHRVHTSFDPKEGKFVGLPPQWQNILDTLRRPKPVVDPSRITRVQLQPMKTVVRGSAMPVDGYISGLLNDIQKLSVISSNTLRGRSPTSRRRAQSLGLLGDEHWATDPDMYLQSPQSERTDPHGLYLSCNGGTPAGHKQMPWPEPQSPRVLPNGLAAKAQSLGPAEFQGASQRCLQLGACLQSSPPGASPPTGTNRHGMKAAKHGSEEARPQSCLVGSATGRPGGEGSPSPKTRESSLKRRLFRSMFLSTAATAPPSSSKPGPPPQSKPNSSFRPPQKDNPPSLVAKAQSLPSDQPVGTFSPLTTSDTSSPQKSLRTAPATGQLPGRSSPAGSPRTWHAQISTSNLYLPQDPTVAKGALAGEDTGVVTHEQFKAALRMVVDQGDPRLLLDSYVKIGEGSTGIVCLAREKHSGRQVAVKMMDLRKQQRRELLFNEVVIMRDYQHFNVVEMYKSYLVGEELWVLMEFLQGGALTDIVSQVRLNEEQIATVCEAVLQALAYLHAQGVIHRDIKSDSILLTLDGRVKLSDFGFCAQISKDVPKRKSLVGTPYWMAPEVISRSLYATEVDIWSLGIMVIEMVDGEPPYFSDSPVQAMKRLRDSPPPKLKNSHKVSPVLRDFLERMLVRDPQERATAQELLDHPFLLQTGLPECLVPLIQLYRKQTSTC
T38 sequence (P27448 whole entry): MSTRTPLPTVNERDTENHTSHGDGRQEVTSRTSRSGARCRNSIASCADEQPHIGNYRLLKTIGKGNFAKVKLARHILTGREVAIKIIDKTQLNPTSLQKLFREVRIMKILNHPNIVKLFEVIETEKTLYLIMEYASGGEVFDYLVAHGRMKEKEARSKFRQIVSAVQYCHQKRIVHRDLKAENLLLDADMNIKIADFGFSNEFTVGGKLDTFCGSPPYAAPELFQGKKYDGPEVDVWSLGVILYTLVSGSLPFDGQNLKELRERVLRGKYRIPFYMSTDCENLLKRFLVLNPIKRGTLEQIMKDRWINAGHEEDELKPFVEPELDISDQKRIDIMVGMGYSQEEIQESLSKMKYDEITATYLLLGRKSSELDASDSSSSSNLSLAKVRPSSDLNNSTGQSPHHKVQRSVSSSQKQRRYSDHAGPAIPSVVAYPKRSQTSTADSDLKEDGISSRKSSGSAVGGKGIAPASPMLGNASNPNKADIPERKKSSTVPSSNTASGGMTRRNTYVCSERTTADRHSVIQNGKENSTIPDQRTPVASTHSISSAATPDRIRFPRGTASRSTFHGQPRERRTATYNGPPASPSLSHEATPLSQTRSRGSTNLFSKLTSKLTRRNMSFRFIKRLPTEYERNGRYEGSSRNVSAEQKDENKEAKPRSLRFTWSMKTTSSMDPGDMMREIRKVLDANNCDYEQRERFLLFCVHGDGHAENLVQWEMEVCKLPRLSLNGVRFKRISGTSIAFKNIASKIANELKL
T33 sequence (Q07912 whole entry): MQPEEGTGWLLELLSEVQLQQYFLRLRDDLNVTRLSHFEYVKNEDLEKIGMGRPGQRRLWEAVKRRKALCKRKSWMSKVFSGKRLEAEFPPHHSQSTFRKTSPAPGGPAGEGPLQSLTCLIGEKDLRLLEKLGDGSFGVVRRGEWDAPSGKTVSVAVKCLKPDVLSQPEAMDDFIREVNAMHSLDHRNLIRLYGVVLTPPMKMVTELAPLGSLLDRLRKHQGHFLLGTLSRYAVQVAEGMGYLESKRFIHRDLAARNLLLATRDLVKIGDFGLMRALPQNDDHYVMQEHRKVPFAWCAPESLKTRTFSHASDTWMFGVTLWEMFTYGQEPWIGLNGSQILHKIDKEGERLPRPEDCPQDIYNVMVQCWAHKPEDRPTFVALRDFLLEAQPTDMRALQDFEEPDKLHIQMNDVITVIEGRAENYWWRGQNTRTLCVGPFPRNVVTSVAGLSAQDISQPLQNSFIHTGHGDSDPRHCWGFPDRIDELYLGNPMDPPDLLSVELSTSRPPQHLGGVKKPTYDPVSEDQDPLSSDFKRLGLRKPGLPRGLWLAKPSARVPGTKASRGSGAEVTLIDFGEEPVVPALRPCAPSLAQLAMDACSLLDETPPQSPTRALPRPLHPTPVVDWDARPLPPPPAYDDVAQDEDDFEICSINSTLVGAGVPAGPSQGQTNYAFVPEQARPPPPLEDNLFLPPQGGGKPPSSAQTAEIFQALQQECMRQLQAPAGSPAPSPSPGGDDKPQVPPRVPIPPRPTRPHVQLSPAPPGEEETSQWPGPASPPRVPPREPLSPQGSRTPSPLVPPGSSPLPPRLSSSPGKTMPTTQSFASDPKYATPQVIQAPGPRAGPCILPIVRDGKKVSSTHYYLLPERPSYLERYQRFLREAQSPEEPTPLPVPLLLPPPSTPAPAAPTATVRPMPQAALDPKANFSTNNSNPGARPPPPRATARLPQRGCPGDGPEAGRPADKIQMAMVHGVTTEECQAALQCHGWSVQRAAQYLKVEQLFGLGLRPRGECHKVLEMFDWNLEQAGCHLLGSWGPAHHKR
T29 sequence (Q9P286 whole entry): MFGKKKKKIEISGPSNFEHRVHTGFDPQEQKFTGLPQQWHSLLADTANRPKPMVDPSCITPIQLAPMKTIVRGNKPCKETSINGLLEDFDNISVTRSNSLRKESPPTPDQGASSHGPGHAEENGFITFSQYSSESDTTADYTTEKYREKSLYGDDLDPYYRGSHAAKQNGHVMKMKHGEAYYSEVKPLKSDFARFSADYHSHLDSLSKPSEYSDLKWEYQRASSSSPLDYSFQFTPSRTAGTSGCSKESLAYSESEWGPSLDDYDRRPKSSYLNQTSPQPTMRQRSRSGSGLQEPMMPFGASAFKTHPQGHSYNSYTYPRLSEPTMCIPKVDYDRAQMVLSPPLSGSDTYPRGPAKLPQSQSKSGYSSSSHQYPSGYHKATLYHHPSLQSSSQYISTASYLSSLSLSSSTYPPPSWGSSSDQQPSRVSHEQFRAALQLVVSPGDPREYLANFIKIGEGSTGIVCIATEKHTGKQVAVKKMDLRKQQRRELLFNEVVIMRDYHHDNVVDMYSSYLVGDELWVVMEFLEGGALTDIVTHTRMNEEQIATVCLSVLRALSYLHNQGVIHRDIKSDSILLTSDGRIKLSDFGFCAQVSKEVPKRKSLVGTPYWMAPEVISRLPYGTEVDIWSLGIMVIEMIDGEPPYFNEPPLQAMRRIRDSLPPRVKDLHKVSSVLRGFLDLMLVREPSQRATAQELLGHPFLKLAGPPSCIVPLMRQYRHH
T31 sequence (P22607 23-806 K650E): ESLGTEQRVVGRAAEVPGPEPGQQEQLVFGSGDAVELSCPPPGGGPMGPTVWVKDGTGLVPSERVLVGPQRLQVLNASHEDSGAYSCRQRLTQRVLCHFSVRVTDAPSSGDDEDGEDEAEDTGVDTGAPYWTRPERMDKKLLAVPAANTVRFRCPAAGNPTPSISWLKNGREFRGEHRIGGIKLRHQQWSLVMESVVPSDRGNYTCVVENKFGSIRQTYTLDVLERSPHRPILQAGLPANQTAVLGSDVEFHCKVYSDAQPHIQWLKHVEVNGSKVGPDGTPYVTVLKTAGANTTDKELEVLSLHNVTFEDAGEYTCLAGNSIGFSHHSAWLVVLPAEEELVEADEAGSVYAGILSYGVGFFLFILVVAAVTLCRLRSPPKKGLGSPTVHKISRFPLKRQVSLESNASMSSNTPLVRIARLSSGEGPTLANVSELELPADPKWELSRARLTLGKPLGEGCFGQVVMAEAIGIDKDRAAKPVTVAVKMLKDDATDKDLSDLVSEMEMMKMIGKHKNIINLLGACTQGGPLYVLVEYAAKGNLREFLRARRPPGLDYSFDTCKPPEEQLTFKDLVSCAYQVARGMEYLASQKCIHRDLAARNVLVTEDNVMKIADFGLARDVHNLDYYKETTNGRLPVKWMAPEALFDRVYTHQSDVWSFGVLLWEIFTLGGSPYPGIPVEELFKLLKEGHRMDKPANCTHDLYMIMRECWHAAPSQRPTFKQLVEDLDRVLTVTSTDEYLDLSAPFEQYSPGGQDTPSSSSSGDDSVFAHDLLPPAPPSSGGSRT
T17 sequence (P45983 whole entry): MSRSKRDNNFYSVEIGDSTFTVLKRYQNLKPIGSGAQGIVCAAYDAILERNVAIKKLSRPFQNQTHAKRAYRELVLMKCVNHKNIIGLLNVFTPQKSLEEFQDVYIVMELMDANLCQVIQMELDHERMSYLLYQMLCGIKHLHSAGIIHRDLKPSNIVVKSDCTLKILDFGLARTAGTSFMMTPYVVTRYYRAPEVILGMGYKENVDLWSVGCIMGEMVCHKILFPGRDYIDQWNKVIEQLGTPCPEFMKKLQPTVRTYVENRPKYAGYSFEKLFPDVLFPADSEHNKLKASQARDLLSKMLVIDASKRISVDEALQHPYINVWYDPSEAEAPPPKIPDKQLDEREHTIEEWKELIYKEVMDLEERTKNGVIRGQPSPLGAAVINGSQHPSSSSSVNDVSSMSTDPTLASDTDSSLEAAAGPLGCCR
T35 sequence (Q9BYT3 whole entry): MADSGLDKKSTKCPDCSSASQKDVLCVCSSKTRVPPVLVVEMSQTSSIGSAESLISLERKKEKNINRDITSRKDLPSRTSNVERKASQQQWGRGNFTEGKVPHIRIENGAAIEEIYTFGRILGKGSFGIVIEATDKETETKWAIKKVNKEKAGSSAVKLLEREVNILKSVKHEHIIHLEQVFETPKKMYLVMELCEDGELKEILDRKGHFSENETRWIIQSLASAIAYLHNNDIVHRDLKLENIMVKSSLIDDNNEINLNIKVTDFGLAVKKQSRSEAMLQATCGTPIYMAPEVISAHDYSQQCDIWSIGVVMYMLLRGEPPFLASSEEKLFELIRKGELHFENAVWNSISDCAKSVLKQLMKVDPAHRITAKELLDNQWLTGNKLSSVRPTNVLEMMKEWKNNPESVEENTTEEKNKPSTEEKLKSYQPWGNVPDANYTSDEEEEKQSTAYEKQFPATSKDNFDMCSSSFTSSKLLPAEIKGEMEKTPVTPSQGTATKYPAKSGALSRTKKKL

## Clc1cc2cc(c1)-c1cnn3ccc(nc13)NCCOCCO2 [OD36]
ABL1_E255K
  inhibition at 0.1 µM: -2%
JAK3
  inhibition at 0.1 µM: 6%
MATK
  inhibition at 0.1 µM: 9%
MAPK11
  inhibition at 0.1 µM: 11%
BRAF
  inhibition at 0.1 µM: 20%
SIK2
  inhibition at 0.1 µM: 94%
ACVR1
  inhibition at 0.1 µM: 95%
PLK2
  inhibition at 0.1 µM: 17%
MAP2K6
  inhibition at 0.1 µM: 1%
MYLK2
  inhibition at 0.1 µM: 23%
WEE1
  inhibition at 0.1 µM: 15%
EGFR_L747-S752del_P753S
  inhibition at 0.1 µM: 10%
PRKD1
  inhibition at 0.1 µM: -11%
EPHA8
  inhibition at 0.1 µM: 11%
RET_S891A
  inhibition at 0.1 µM: 63%
TEC
  inhibition at 0.1 µM: 6%
MAPK8
  inhibition at 0.1 µM: -6%
KIT_V559D_V654A
  inhibition at 0.1 µM: -2%
NEK4
  inhibition at 0.1 µM: 2%
TXK
  inhibition at 0.1 µM: 37%
GRK6
  inhibition at 0.1 µM: 10%
EGFR_T790M
  inhibition at 0.1 µM: -14%
CHEK2
  inhibition at 0.1 µM: 8%
MAPK1
  inhibition at 0.1 µM: 10%
BMPR1A
  inhibition at 0.1 µM: 9%
RET_Y791F
  inhibition at 0.1 µM: 30%
RET_R813Q
  inhibition at 0.1 µM: 45%
GSG2
  inhibition at 0.1 µM: 50%
PAK7
  inhibition at 0.1 µM: 8%
CDK4_cyclinD1
  inhibition at 0.1 µM: 8%
FGFR3_K650E
  inhibition at 0.1 µM: 8%
CDK9_cyclinT1
  inhibition at 0.1 µM: 17%
TNK2
  inhibition at 0.1 µM: 17%
TLK1
  inhibition at 0.1 µM: 17%
STK33
  inhibition at 0.1 µM: -1%
DAPK1
  inhibition at 0.1 µM: 12%
SYK
  inhibition at 0.1 µM: -1%
MARK3
  inhibition at 0.1 µM: 8%
PAK6
  inhibition at 0.1 µM: 1%
PRKCI
  inhibition at 0.1 µM: 11%
MAPKAPK2
  inhibition at 0.1 µM: -9%
ADRBK2
  inhibition at 0.1 µM: 0%
CAMK2B
  inhibition at 0.1 µM: 32%

## Cc1cc2cc(c1)-c1cnn3ccc(nc13)NCCNC(=O)CCN(C)C2 [OD52]
ABL1_E255K
  inhibition at 0.1 µM: 7%
JAK3
  inhibition at 0.1 µM: -3%
MATK
  inhibition at 0.1 µM: -9%
MAPK11
  inhibition at 0.1 µM: -5%
BRAF
  inhibition at 0.1 µM: 16%
SIK2
  inhibition at 0.1 µM: -1%
ACVR1
  inhibition at 0.1 µM: 90%
PLK2
  inhibition at 0.1 µM: -4%
MAP2K6
  inhibition at 0.1 µM: 6%
MYLK2
  inhibition at 0.1 µM: -4%
WEE1
  inhibition at 0.1 µM: 3%
EGFR_L747-S752del_P753S
  inhibition at 0.1 µM: -15%
PRKD1
  inhibition at 0.1 µM: -22%
EPHA8
  inhibition at 0.1 µM: -6%
RET_S891A
  inhibition at 0.1 µM: 84%
TEC
  inhibition at 0.1 µM: 0%
MAPK8
  inhibition at 0.1 µM: -9%
KIT_V559D_V654A
  inhibition at 0.1 µM: -12%
NEK4
  inhibition at 0.1 µM: -3%
TXK
  inhibition at 0.1 µM: 25%
GRK6
  inhibition at 0.1 µM: -5%
EGFR_T790M
  inhibition at 0.1 µM: -17%
CHEK2
  inhibition at 0.1 µM: -3%
MAPK1
  inhibition at 0.1 µM: -1%
BMPR1A
  inhibition at 0.1 µM: -7%
RET_Y791F
  inhibition at 0.1 µM: 30%
RET_R813Q
  inhibition at 0.1 µM: 37%
GSG2
  inhibition at 0.1 µM: 20%
PAK7
  inhibition at 0.1 µM: 5%
CDK4_cyclinD1
  inhibition at 0.1 µM: -9%
FGFR3_K650E
  inhibition at 0.1 µM: -7%
CDK9_cyclinT1
  inhibition at 0.1 µM: -3%
TNK2
  inhibition at 0.1 µM: -20%
TLK1
  inhibition at 0.1 µM: 16%
STK33
  inhibition at 0.1 µM: -13%
DAPK1
  inhibition at 0.1 µM: 0%
SYK
  inhibition at 0.1 µM: -2%
MARK3
  inhibition at 0.1 µM: -1%
PAK6
  inhibition at 0.1 µM: 4%
PRKCI
  inhibition at 0.1 µM: -17%
MAPKAPK2
  inhibition at 0.1 µM: -1%
ADRBK2
  inhibition at 0.1 µM: -3%
CAMK2B
  inhibition at 0.1 µM: 12%

— article PMC6874179, “Development of Macrocycle Kinase Inhibitors for ALK2 Using Fibrodysplasia Ossificans Progressiva‐Derived Endothelial Cells” (JBMR Plus, 2019)
